Laboratory results reported in publication PMC11169557, “The Goldilocks paradigm: comparing classical machine learning, large language models, and few-shot learning for drug discovery applications” (Communications Chemistry, 2024).
Structures can show the parent of a compound that is named as a salt.

Target: MARK1 (Homo sapiens, UniProt Q9P0L2)
Experiment: MARK1 inhibition, IC50 determination (dose-response) using Z'-LYTE assay
Format: biochemical
Conditions: for IC50: Z'-LYTE assay, non-linear regression (3-parameters); for Active (Measured): hits of the initial screen followed up with dose-response curves, 1 = true MARK1 inhibitor; for MARK1 inhibitor (result in words): out of the 13 tested compounds

Sequence of MARK1 (Q9P0L2 whole entry): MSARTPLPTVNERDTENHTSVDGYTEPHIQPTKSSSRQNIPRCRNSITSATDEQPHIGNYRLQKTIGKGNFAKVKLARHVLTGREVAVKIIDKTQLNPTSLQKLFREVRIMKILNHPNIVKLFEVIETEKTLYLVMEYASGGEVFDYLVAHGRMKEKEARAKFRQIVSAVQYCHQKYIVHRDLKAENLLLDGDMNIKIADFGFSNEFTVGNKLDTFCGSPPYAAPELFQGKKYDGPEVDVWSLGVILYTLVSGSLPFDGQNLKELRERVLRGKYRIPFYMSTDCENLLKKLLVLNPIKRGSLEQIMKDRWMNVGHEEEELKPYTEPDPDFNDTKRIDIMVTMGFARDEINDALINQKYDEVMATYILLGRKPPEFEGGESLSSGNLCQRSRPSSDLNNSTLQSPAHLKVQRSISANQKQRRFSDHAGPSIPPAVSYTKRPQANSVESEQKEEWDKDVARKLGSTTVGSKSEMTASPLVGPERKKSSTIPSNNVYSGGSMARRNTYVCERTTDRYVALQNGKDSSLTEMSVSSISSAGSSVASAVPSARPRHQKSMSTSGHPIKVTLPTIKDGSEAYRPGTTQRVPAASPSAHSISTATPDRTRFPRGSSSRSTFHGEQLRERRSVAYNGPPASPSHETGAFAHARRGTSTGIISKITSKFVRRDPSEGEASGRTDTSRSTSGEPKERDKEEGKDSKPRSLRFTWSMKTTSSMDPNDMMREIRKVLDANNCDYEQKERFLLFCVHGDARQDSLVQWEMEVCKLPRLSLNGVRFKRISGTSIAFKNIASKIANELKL

IC50 [µM] | Active (Measured) | MARK1 inhibitor (result in words) | SMILES
0.185 | 1 | true novel MARK1 active inhibitors | O=C(Nc1c[nH]nc1-c1nc2ccc(CN3CCOCC3)cc2[nH]1)NC1CC1 [AT9283]
0.166 | 1 | true novel MARK1 active inhibitors | CCS(=O)(=O)N1CC(CC#N)(n2cc(-c3ncnc4[nH]ccc34)cn2)C1 [Baricitinib]
– | 0 | – | COc1cc(Nc2c(C#N)cnc3cc(OCCCN4CCN(C)CC4)c(OC)cc23)c(Cl)cc1Cl [Bosutinib]
– | 0 | – | Cc1cc(Nc2ncc(Cl)c(Nc3ccccc3S(=O)(=O)C(C)C)n2)c(OC(C)C)cc1C1CCNCC1 [Ceritinib]
– | 0 | – | C[C@@H](Oc1cc(-c2cnn(C3CCNCC3)c2)cnc1N)c1c(Cl)ccc(F)c1Cl [Crizotinib]
– | 0 | – | CC(C)(C)NC[C@H](O)COc1cccc2c1CCCC2=O.Cl [Levobunolol (hydrochloride)]
0.219 | 1 | true novel MARK1 active inhibitors | CN1CCN(c2ccc(Nc3ncc4cc(C#N)c(=O)n(C5CCCC5)c4n3)cc2)CC1 [ON123300]
– | 1 | true novel MARK1 active inhibitors | C[C@@H]1CCN(C(=O)CC#N)C[C@@H]1N(C)c1ncnc2[nH]ccc12 [Tofacitinib citrate]
0.327 | 1 | true novel MARK1 active inhibitors | CC[C@@H]1CN(C(=O)NCC(F)(F)F)C[C@@H]1c1cnc2cnc3[nH]ccc3n12 [Upadacitinib]
– | 0 | – | COc1cc(O)c2c(c1)oc(=O)c1c3cc(O)c(O)cc3oc21 [Wedelolactone]
– | 0 | – | CCCCCCCCc1ccc(CCC(N)(CO)CO)cc1 [fingolimod]

SMILES | IC50 [µM] | Active (Measured) | MARK1 inhibitor (result in words)
Cc1cc(C(C#N)c2ccc(Cl)cc2)c(Cl)cc1NC(=O)c1cc(I)cc(I)c1O (stereo not drawn) [Closantel] | – | 0 | –
